Several values for one entry are separate records, joined by “and”; a condition that tells them apart may be missing. Equal entries are not always repeated. Entries after “also recorded” stand apart in the source; their conditions may differ.
Tests used:
Assay type in all cases: cell-based
DmelOrco V206W = DmelOrco V206W (Drosophila melanogaster, UniProt Q9VNB5, V206W); experiment: TEVC recording of VUAA1-induced current, DmelOrco V206W in Xenopus oocytes; design: VUAA1-induced current, V206W: unit not given here; conditions: for VUAA1-induced current, V206W: individual oocytes
DmelOrco V206W, sequence (Q9VNB5 whole entry V206W, the tested form may be a part): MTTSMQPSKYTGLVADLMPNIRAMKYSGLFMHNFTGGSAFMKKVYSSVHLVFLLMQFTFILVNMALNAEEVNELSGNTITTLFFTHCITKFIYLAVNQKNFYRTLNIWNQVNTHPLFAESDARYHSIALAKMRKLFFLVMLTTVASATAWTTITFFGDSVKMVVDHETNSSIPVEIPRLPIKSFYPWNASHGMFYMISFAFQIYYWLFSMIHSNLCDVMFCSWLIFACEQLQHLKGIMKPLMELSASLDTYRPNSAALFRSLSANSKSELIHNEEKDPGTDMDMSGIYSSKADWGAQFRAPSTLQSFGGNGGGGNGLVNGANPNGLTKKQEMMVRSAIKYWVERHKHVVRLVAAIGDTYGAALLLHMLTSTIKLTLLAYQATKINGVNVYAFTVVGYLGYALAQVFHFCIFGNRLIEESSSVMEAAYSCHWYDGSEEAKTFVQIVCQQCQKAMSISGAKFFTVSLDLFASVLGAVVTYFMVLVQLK
Text: (§1) All Orco gene sequences were optimized[63] for protein expression in Xenopus laevis oocytes with the GenSmartTM Codon optimization Tool and subcloned into a pGEMHE-derived vector. The wildtype gene of Drosophila melanogaster Orco (DmelOrco) was synthesized by Genscript and subcloned with XmaI/XhoI cloning sites. Site-directed mutagenesis of DmelOrco was done by PCR with the Q5® site directed mutagenesis kit (NEB) using primers optimized with the NEBase Changer online tool and following the supplier’s protocol. After transformation of commercial competent bacteria (XL10 Gold) by standard heat-shock protocol and overnight culture in ampicillin-containing LB plates, positive clones were identified by electrophoretic restriction profile and external sequencing (Genewiz). DNAs of positive clones were amplified with Qiagen MidiPrep Kit and the ORF was fully sequenced. For in vitro transcription, DNAs were linearized with restriction enzyme NotI that cuts a unique site in the 3′ region of the polyA tail. The linearized DNAs were purified by the standard phenol:chloroform extraction method and transcribed into mRNA using the T7 ultra mMessage mMachine kit (Thermo Fisher Scientific). mRNAs were purified with the NucleoSpin RNA plus XS kit (Machery-Nagel). DNA and RNA were analyzed by agarose-gel electrophoresis and quantified by spectrophotometry.
(§2) Xenopus laevis oocytes were prepared, as previously described. Briefly, oocytes were defolliculated after surgical retrieval by type 1 A collagenase over 2-3 h under smooth horizontal agitation. They were manually selected and incubated at 19 °C in modified-Barth’s solution (1 mM KCl, 0.82 mM MgSO4, 88 mM NaCl, 2.4 mM NaHCO3, 0.41 mM CaCl2, Ca(NO3)2 0.3 mM, 16 mM HEPES, pH 7.4) supplemented with 100 U mL^−1 of penicillin and streptomycin and 0.1 mg mL^−1 of gentamycin. Each oocyte was micro-injected with the Nanoject instrument (Drummond) with 50 nL of 20 ng of mRNA coding for the Orco of interest. Injected oocytes were incubated individually in 96-well plates for 4 days at 19 °C in the same buffer. Different batches of oocytes have been tested per construct. The results of the mutants of interest have been confirmed by a second set of experiments comparing the amplitudes with WT in the same day and from the same batch of oocytes (Supplementary Fig. 11).
(§3) Whole cell currents were recorded with the two-electrode voltage-clamp (TEVC) technique with the HiClamp robot (MultiChannel System). Microelectrodes were filled with 3 M KCl. The high K^+ buffer used for recordings was composed of 91 mM KCl, 1 mM MgCl2, 1.8 mM CaCl2, 5 mM HEPES, pH 7.4. Membrane voltage was clamped to −50 mV and VUAA1 was applied for 60 s. Data were extracted with M. Vivaudou’s programs[65] and statistically analyzed with Prism 8 (Graphpad).

DmelOrco Y397S = DmelOrco Y397S (Drosophila melanogaster, UniProt Q9VNB5, Y397S); experiment: TEVC recording of VUAA1-induced current, DmelOrco Y397S in Xenopus oocytes
DmelOrco Y397S, sequence (Q9VNB5 whole entry Y397S, the tested form may be a part): as the sequence (Q9VNB5 whole entry V206W, the tested form may be a part) above, with W206V, Y397S counted along it
Text: as §1, with “The linearized DNAs were purified by the standard phenol:chloroform extraction method and transcribed into mRNA using the T7 ultra mMessage mMachine kit (Thermo Fisher Scientific). mRNAs were purified with the NucleoSpin RNA plus XS kit (Machery-Nagel).” left out, “spectrophotometry. […]” for “spectrophotometry.”
(§4) Whole cell currents were recorded with the two-electrode voltage-clamp (TEVC) technique with the HiClamp robot (MultiChannel System). […] Data were extracted with M. Vivaudou’s programs[65] and statistically analyzed with Prism 8 (Graphpad).

DmelOrco Y390S = DmelOrco Y390S (Drosophila melanogaster, UniProt Q9VNB5, Y390S); experiment: TEVC recording of VUAA1-induced current, DmelOrco Y390S in Xenopus oocytes; conditions: 500 µM VUAA1, TEVC
DmelOrco Y390S, sequence (Q9VNB5 whole entry Y390S, the tested form may be a part): as the sequence (Q9VNB5 whole entry V206W, the tested form may be a part) above, with W206V, Y390S counted along it
Text: as §1, with “The linearized DNAs were purified by the standard phenol:chloroform extraction method and transcribed into mRNA using the T7 ultra mMessage mMachine kit (Thermo Fisher Scientific). mRNAs were purified with the NucleoSpin RNA plus XS kit (Machery-Nagel).” left out, “spectrophotometry. […]” for “spectrophotometry.”
as §4

DmelOrco V206A = DmelOrco V206A (Drosophila melanogaster, UniProt Q9VNB5, V206A); experiment: TEVC recording of VUAA1-induced current, DmelOrco V206A in Xenopus oocytes; design: VUAA1-induced current, V206A: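 current amplitude in µA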
DmelOrco V206A, sequence (Q9VNB5 whole entry V206A, the tested form may be a part): as the sequence (Q9VNB5 whole entry V206W, the tested form may be a part) above, with W206A counted along it
Text: as §1, with “The linearized DNAs were purified by the standard phenol:chloroform extraction method and transcribed into mRNA using the T7 ultra mMessage mMachine kit (Thermo Fisher Scientific). mRNAs were purified with the NucleoSpin RNA plus XS kit (Machery-Nagel).” left out, “spectrophotometry. […]” for “spectrophotometry.”
as §4

DmelOrco T80A = DmelOrco T80A (Drosophila melanogaster, UniProt Q9VNB5, T80A); experiment: TEVC recording of VUAA1-induced current, DmelOrco T80A in Xenopus oocytes; design: VUAA1-induced current, T80A: unit not given here
DmelOrco T80A, sequence (Q9VNB5 whole entry T80A, the tested form may be a part): as the sequence (Q9VNB5 whole entry V206W, the tested form may be a part) above, with T80A, W206V counted along it
Text: as §1, with “The linearized DNAs were purified by the standard phenol:chloroform extraction method and transcribed into mRNA using the T7 ultra mMessage mMachine kit (Thermo Fisher Scientific). mRNAs were purified with the NucleoSpin RNA plus XS kit (Machery-Nagel).” left out, “spectrophotometry. […]” for “spectrophotometry.”
as §4

DmelOrco I79W = DmelOrco I79W (Drosophila melanogaster, UniProt Q9VNB5, I79W); experiment: TEVC recording of VUAA1-induced current, DmelOrco I79W in Xenopus oocytes; design: VUAA1-induced current, i79W: unit not given here; conditions: for VUAA1-induced current, i79W: individual oocytes
DmelOrco I79W, sequence (Q9VNB5 whole entry I79W, the tested form may be a part): as the sequence (Q9VNB5 whole entry V206W, the tested form may be a part) above, with I79W, W206V counted along it
Text: as §1, §2, §3

[1] = Fig.4i dose-response, VUAA1 10 µM (Log(M) -5)

CCc1ccc(NC(=O)CSc2nnc(-c3cccnc3)n2CC)cc1 [VUAA1, N-(4-ethylphenyl)−2-((4-ethyl-5-(3-pyridinyl)−4H-1,2,4-triazol-3-yl)thio)acetamide]
Response to VUAA1 compared with WT (DmelOrco V206W; 500 µM VUAA1, TEVC, V206W): significantly reduced or abolished the activation; also recorded: significant decrease in the response | VUAA1-induced current, V206W (DmelOrco V206W; Fig.4b): 0.24 and 0.29 and 1.03 and 0.65 and 0.59 and 0.7 and 0.64 and 0.44 and 0.27 | VUAA1-induced current, V206W (DmelOrco V206W; [1]): 0.05 and 0.36 and 0.03 and 0.04 (2×) and 0.02 (2×) and 0.01 | VUAA1-induced current, V206W (DmelOrco V206W; Fig.4i dose-response, VUAA1 25 µM (Log(M) -4.6)): 0.02 (2×) and 0.37 and 0.05 and 0.04 and 0.03 (3×) | VUAA1-induced current, V206W (DmelOrco V206W; Fig.4i dose-response, VUAA1 50 µM (Log(M) -4.3)): 0.01 and 0.48 and 0.1 and 0.04 (2×) and 0.05 (2×) and 0.03 | VUAA1-induced current, V206W (DmelOrco V206W; Fig.4i dose-response, VUAA1 100 µM (Log(M) -4)): 0.01 and 0.59 and 0.18 and 0.05 and 0.19 and 0 and 0.22 and 0.1 | VUAA1-induced current, V206W (DmelOrco V206W; Fig.4i dose-response, VUAA1 500 µM (Log(M) -3.3)): 0.07 (2×) and 0.56 and 0.2 and 0.4 and 0.09 and 0.5 and 0.18 | VUAA1-induced current, V206W (DmelOrco V206W; Fig.4i dose-response, VUAA1 1000 µM (Log(M) -3)): 0.12 and 0.59 and 0.2 and 0.07 and 0.5 and 0.11 and 0.61 and 0.24 | Imax (DmelOrco V206W; concentration-effect curve of VUAA1, TEVC, V206W): 0.33 µA | Response to VUAA1 compared with WT (DmelOrco Y397S; 500 µM VUAA1, TEVC, Y397S): no significant effect; also recorded: did not significantly change the amplitude of activation | VUAA1-induced current, Y397S (DmelOrco Y397S; Fig.4b, individual oocytes): 0.98 and 1.78 and 4.23 and 0.82 and 0.77 and 1.48 and 8.3 and 6.29 and 5.87 and 5.52 and 1.76 and 2.18 and 1.83 | Current induced by VUAA1 (median) (DmelOrco Y390S): 2.44 µA | Response to VUAA1 compared with WT (DmelOrco V206A; 500 µM VUAA1, TEVC, V206A): did not significantly affect the amplitude of activation | VUAA1-induced current, V206A (DmelOrco V206A; Fig.4b, individual oocytes): 5.13 and 5.19 and 4.77 and 3.78 and 5.39 and 5.08 and 2.86 and 2.36 | Response to VUAA1 compared with WT (DmelOrco T80A; 500 µM VUAA1, TEVC, T80A): did not significantly affect the amplitude of activation | VUAA1-induced current, T80A (DmelOrco T80A; Fig.4b, individual oocytes): 2.4 and 1.22 and 3.78 and 5.59 and 4.73 and 0.91 and 2.46 and 0.65 and 0.56 and 4.38 and 3.16 and 5.8 | Response to VUAA1 compared with WT (DmelOrco I79W; 500 µM VUAA1, TEVC, I79W): significantly reduced or abolished the activation | VUAA1-induced current, i79W (DmelOrco I79W; Fig.4b): 0.5 and 0.66 and 0.09 and 0.23 and 0.24 and 0.02 and 0.06 and 0.14 and 0.05 | VUAA1-induced current, i79W (DmelOrco I79W; [1]): 0.07 (2×) and 0.12 and 0.2 and 0.01 (3×) and 0.02 and 0.41 and 0.18

From article PMC10713630, “Elucidation of the structural basis for ligand binding and translocation in conserved insect odorant receptor co-receptors” (Nature Communications, 2023)
